Source: PubChem BioAssay (NCI)
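Grown in 96-well plates, cells were treated for 48 hours with each compound at five concentrations. Insufficient inhibition: endpoint recorded as highest concentration tested. The concentration for full growth arrest is given as TGI.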

What was measured:
Assay in all cases: inhibition of tumour cell growth, NCI panel, 48 h
786-0 renal = test system: 786-0 renal
A498 renal = test system: A498 renal
A549 NSCLC = test system: A549 NSCLC
ACHN renal = test system: ACHN renal
BT-549 breast = test system: BT-549 breast
CAKI-1 renal = test system: CAKI-1 renal
CCRF-CEM leukemia = test system: CCRF-CEM leukemia
COLO 205 colon = test system: COLO 205 colon
DU-145 prostate = test system: DU-145 prostate
HCC-2998 colon = test system: HCC-2998 colon
HCT-116 colon = test system: HCT-116 colon
HCT-15 colon = test system: HCT-15 colon
HL-60(TB) leukemia = test system: HL-60(TB) leukemia
HOP-62 NSCLC = test system: HOP-62 NSCLC
HOP-92 NSCLC = test system: HOP-92 NSCLC
HT29 colon = test system: HT29 colon
K-562 leukemia = test system: K-562 leukemia
KM12 colon = test system: KM12 colon
LOX IMVI melanoma = test system: LOX IMVI melanoma
M14 melanoma = test system: M14 melanoma
MCF7 breast = test system: MCF7 breast
MDA-MB-231 breast = test system: MDA-MB-231 breast
MDA-MB-435 = test system: MDA-MB-435
MDA-N = test system: MDA-N
NCI-H226 lung = test system: NCI-H226 lung
NCI-H23 lung = test system: NCI-H23 lung
NCI/ADR-RES ovarian = test system: NCI/ADR-RES ovarian
OVCAR-3 ovarian = test system: OVCAR-3 ovarian
OVCAR-5 ovarian = test system: OVCAR-5 ovarian
OVCAR-8 ovarian = test system: OVCAR-8 ovarian
PC-3 prostate = test system: PC-3 prostate
RPMI-8226 leukemia = test system: RPMI-8226 leukemia
RXF 393 renal = test system: RXF 393 renal
SF-268 CNS = test system: SF-268 CNS
SF-295 CNS = test system: SF-295 CNS
SF-539 CNS = test system: SF-539 CNS
SK-MEL-2 melanoma = test system: SK-MEL-2 melanoma
SK-MEL-28 melanoma = test system: SK-MEL-28 melanoma
SK-MEL-5 melanoma = test system: SK-MEL-5 melanoma
SK-OV-3 ovarian = test system: SK-OV-3 ovarian
SN12C renal = test system: SN12C renal
SNB-19 CNS = test system: SNB-19 CNS
SNB-75 CNS = test system: SNB-75 CNS
SR leukemia = test system: SR leukemia
SW-620 colon = test system: SW-620 colon
T-47D breast = test system: T-47D breast
TK-10 renal = test system: TK-10 renal
U251 CNS = test system: U251 CNS
UACC-257 melanoma = test system: UACC-257 melanoma
UACC-62 melanoma = test system: UACC-62 melanoma

Measured: TGI

COc1ccc(NC(=S)C#N)cc1
> 100 µM: all assays above
